Source: patent publication US20030114358A1, “Use of compatible solutes as inhibitors of the enzymatic decomposition of macromolecular biopolymers” (priority 2000, published 2003)

What was measured:
Format in all cases: biochemical
[1] = tested on: peroxidase-conjugated rabbit anti-mouse antibody; experiment: ELISA residual signal after pepsin pretreatment of peroxidase conjugate; conditions: two hours at 37° C.
Protocol: The inhibition by ectoine of the proteolysis of antibodies was additionally shown by enzyme-linked immunosorbent assay (ELISA). Thus, 96-well ELISA plates were coated over night with 0.5 μg of human IgG in 100 μl of 0.9% NaCl at 4° C. Subsequently, the plates were washed three times in 50 mM Tris, 0.8% NaCl, 0.020% KCl, pH 7.4, C(T-TBS), and blocked with 200 μl of 1% gelatin in TBS for 2 hours at 37° C. After three washes in T-TBS, an incubation was performed with monoclonal mouse anti-human IgG diluted 1:250 in TBS at 50 μl per well for one hour at 37° C. After four washes with T-TBS, incubation was performed with a peroxidase-conjugated rabbit anti-mouse antibody diluted 1:5000 in TBS at 100 μl per well for one hour at 37° C. After four additional washes, the enzyme reaction was performed by adding 100 μl of substrate per well. As the substrate was used 4.8 mg of phenylene diamine in 3 ml of 0.2 M Na2HPO4, 3 ml of 0.1 M citric acid, 6 ml of water, and 5 μl of H2O2. The reaction was stopped after about 10 minutes by acidification with 100 μl per well of 0.07 M sulfuric acid, and the plates were quantified in an ELISA autoreader. Prior to the experiment, all three protein components were proteolyzed by pepsin for two hours at 37° C. with or without the addition of 0.5 M ectoine. […] The antibody conjugate was not attacked by pepsin. […]

[2] = tested on: monoclonal mouse anti-human IgG; experiment: ELISA residual signal after pepsin pretreatment of monoclonal mouse antibody; conditions: for Residual signal in ELISA, pretreated antibody monoclonal mouse antibody: two hours at 37° C.
Protocol: (§1) The inhibition by ectoine of the proteolysis of antibodies was additionally shown by enzyme-linked immunosorbent assay (ELISA). Thus, 96-well ELISA plates were coated over night with 0.5 μg of human IgG in 100 μl of 0.9% NaCl at 4° C. Subsequently, the plates were washed three times in 50 mM Tris, 0.8% NaCl, 0.020% KCl, pH 7.4, C(T-TBS), and blocked with 200 μl of 1% gelatin in TBS for 2 hours at 37° C. After three washes in T-TBS, an incubation was performed with monoclonal mouse anti-human IgG diluted 1:250 in TBS at 50 μl per well for one hour at 37° C. After four washes with T-TBS, incubation was performed with a peroxidase-conjugated rabbit anti-mouse antibody diluted 1:5000 in TBS at 100 μl per well for one hour at 37° C. After four additional washes, the enzyme reaction was performed by adding 100 μl of substrate per well. As the substrate was used 4.8 mg of phenylene diamine in 3 ml of 0.2 M Na2HPO4, 3 ml of 0.1 M citric acid, 6 ml of water, and 5 μl of H2O2. The reaction was stopped after about 10 minutes by acidification with 100 μl per well of 0.07 M sulfuric acid, and the plates were quantified in an ELISA autoreader. Prior to the experiment, all three protein components were proteolyzed by pepsin for two hours at 37° C. with or without the addition of 0.5 M ectoine. […] The antibody conjugate was not attacked by pepsin. The treatment was performed in an analogous manner with hydroxyectoine, proline and betaine.

[3] = tested on: heavy chains of a human antibody (IgG); experiment: Limited proteolysis of human IgG by pepsin, quantified in 12% SDS gels; conditions: 0.5 M solute; 0.5 mg/ml antibody, 5 μg/ml pepsin, 37° C., 100 mM sodium acetate pH 3; FIG. 1
Protocol: Limited proteolyses of human IgG were performed at an antibody concentration of 0.5 mg/ml and a pepsin concentration of 5 μg/ml at 37° C. in 100 mM sodium acetate, pH 3. The incubations were performed without additions under 0.5 M ectoine, under 0.5 M hydroxyectoine, and under a mixture of 0.25 M ectoine and 0.25 M hydroxyectoine. The course of the limited proteolyses was quantified subsequent to the incubations in 12% SDS gels under reducing conditions.
Lanes 1, 5, 9: with water; lanes 2, 6, 10: with ectoine; lanes 3, 7, 11: with ectoine and hydroxyectoine; lanes 4, 8, 12; with hydroxyectoine; lanes 1, 2, 3, 4: without incubation; lanes 5, 6, 7, 8: after 15 min of incubation; lanes 9, 10, 11, 12: after 180 min of incubation.

human IgG = experiment: ELISA residual signal after pepsin pretreatment of human IgG; conditions: for Residual signal in ELISA, pretreated antibody human IgG: two hours at 37° C.
Protocol: as §1

pepsin = pepsin (Homo sapiens, UniProt P0DJD8); experiment: Pepsin activity by spectrophotometry on hydrolysis of a synthetic hexapeptide; conditions: substrate Leu-Ser-p-NitroPhe-Nle-Ala-Leu methyl ester; enzyme-kinetic measurements
Protocol: In principle, the experiments allow for two possible explanations. On the one hand, the compatible solutes could inhibit the protease. On the other hand, the solute could prevent the attack of the protease according to the invention for steric reasons through stabilization of the native, more compact conformation of the antibody molecule. Therefore, the effect of ectoine and hydroxyectoine on the activity of pepsin was determined by spectrophotometry on the hydrolysis of a synthetic low-molecular weight hexapeptide [E. Schinaith: Clin. Biochem. 22, 91-98 (1989)]. […] This is a clear indication of the fact that the inhibition of the antibody proteolyses is to be attributed to steric effects according to the invention.

[4] = with ectoine (0.5 M) and pepsin
[5] = with ectoine (0.5 M), without pepsin

Sequence of pepsin (P0DJD8 63-388): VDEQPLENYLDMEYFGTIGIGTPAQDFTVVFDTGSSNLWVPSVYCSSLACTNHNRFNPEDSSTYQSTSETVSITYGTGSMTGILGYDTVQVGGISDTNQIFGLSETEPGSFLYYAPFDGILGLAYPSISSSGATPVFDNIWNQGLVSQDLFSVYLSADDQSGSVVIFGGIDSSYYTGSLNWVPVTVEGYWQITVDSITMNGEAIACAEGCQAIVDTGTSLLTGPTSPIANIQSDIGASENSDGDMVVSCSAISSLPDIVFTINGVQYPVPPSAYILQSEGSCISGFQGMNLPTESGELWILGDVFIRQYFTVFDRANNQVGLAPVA

Row | Residual signal in ELISA, pretreated antibody peroxidase conjugate [1, 4] [%] | Residual signal in ELISA, pretreated antibody peroxidase conjugate [1, 5] [%] | Structure (SMILES) | protection of monoclonal mouse antibody against proteolytic digest by pepsin ([2]; 0.5 M ectoine, ELISA) | Residual signal in ELISA, pretreated antibody monoclonal mouse antibody [2, 4] [%] | Residual signal in ELISA, pretreated antibody monoclonal mouse antibody [2, 5] [%] | hydrolysis of the heavy chain of human IgG by pepsin [3] | protection of human IgG against proteolytic digest by pepsin (human IgG; 0.5 M ectoine, ELISA) | Residual signal in ELISA, pretreated antibody human IgG (human IgG; [4]) [%] | Residual signal in ELISA, pretreated antibody human IgG (human IgG; [5]) [%] | inhibition of the protease pepsin (pepsin)
1 | 121 | 98 | CC1=NCC[C@@H](C(=O)O)N1 [ectoine] | effectively protected | 98 | 97 | inhibited significantly | effectively protected | 91 | 85 | neither ectoine nor hydroxyectoine inhibits the protease
2 | – | – | CC1=NC[C@H](O)[C@@H](C(=O)O)N1 [hydroxyectoine] | – | – | – | inhibited significantly | – | – | – | neither ectoine nor hydroxyectoine inhibits the protease
